The record followed here is article PMC6430684 (Cell chemical biology, 2019).

The assay has as its target HSP90α (Homo sapiens, UniProt P07900). As to the kind of experiment: competitive fluorescence polarization with geldanamycin-FITC. The format is binding. (In general: Polarisation of emitted light reports the rotation of a fluorescent probe.)

As for `O=C1C=C(Nc2ccc3cnccc3c2)c2ccccc2C1=O` [YZ129, 4-(isoquinolin-6-ylamino)naphthalene-1,2-dione], the IC50 (in general, the midpoint of a concentration-inhibition curve) came out at 29.5 nM.
